From patent publication US8778616B2, “Method of using CCR3 binding agents to detect choroidal neovascularization” (University of Kentucky Research Foundation, priority 2009, dated 2014)

What was measured:
[1] = tested on: CCR3; assay: CCR3 bioimaging: fundus angiography after intravenous injection; type: in vivo, mouse; details: wild-type and Ccl2−/−×Ccr2−/− mice
Method: CCR3 bioimaging. F(ab) fragments were created from monoclonal IgG2a antibody raised against the extracellular domain of murine CCR3 (R&D Systems) and an isotype rat IgG2a (R&D Systems) using a commercially available papain-based kit (Pierce). Recovered fragments were conjugated with quantum dots (Invitrogen, QDot-800) and resuspended in sterile PBS. Ccl2^−/−×Ccr2^−/− mice were administered 100 μg of tagged CCR3 F(ab) or isotype F(ab) via tail vein injection after acquiring baseline fluorescent imaging using a Topcon retinal camera (TRC-50IX). Serial images were then acquired at 1, 4, and 12 h after which eyes were harvested and frozen in OCT for immunofluorescent analyses. Retinal images were analyzed (ImageNet, Topcon) by comparison to baseline and fluorescein angiographic data. Hyperfluorescent areas were then cropped, equally thresholded, and pseudocolored (Photoshop CS3, Adobe). Sections from QDot-conjugated CCR3 or rat IgG2a isotype F(ab) injected animals were fixed in 4% paraformaldehyde and blocked with 5% normal donkey serum/5% goat serum in PBS, stained with rat anti-mouse CD31 (BD Biosciences) and either rabbit anti-mouse CCR3 (Santa Cruz) or rabbit anti-Ki67 (Abcam) followed by appropriate fluorescent secondary antibodies (Alexa Fluor 488/594, Invitrogen), and evaluated by confocal laser scanning microscopy (Leica SP-5).

[2] = tested on: laser-induced CNV; assay: Laser-induced CNV in Ccr3−/− mice (specificity of CCR3 blockade); type: in vivo, mouse; details: n=5, P>0.1
Method: (§1) Mouse model of CNV. Laser photocoagulation (OcuLight GL, Iridex Corporation) was performed on mouse eyes to induce CNV, and CNV volumes were measured 7 days after injury by scanning laser confocal microscope (TCS SP, Leica) as previously described (Kleinman, et al., Nature. 452, 591-597 (2008)). Drug injections. Rat IgG2a neutralizing antibody against mouse CCR3 (R&D Systems), control rat IgG2a (Serotec), goat neutralizing antibody against mouse CCL11 (R&D Systems), goat neutralizing antibody against mouse CCL24 (R&D Systems), control goat IgG (Jackson Immunoresearch), or (S)-Methyl-2-naphthoylamino-3-(4-nitrophenyl)propionate (SB328437; Calbiochem) dissolved in DMSO were injected into the vitreous humor using a 33-gauge double-calibre needle (Ito Corporation) once, immediately after laser injury as previously described (Kleinman, et al., (2008) supra).
Animals. All animal experiments were in accordance with the guidelines of the University of Kentucky IACUC and the Association for Research in Vision and Ophthalmology. C57BL/6J and Kit^W-v/Kit^W-v mice were purchased from The Jackson Laboratory. […]

[3] = tested on: retina; assay: Retinal toxicity by fundus imaging and electroretinography; type: in vivo; details: wild-type mice, fundus imaging and electrophysiological function; anti-VEGF-A: repeated intravitreous administration
Method: Electroretinography. Mice were dark adapted overnight and then anesthetized. Both eyes were positioned within a ColorBurst Ganzfeld stimulator (Diagnosys). Espion software (Diagnosys) was used to program a fully automated flash intensity series from which retinal responses were recorded.

[4] = tested on: laser-induced CNV; assay: Laser-induced CNV in wild-type mice; type: in vivo, mouse; details: single intraocular administration after laser injury, versus isotype IgG or vehicle
Method: as §1
Drug injections. […]

[5] = tested on: Rac-1; assay: Rac-1 activation pull-down assay; type: cell-based; details: human CECs; CCL11 10 ng/ml, CCL24 100 ng/ml, CCL26 2 μg/ml; versus unstimulated (0 s) cells
Method: Rac-1 activation. Human CECs were cultured in EGM-2 MV containing 5% FBS. Prior to starting the assay, cells were serum starved with basal medium (MCDB131) supplemented with 1% FBS overnight. Cells were stimulated for designated times with Eotaxin-1, 2 and 3 (10 ng/ml, 100 ng/ml and 2 μg/ml respectively). Equal amounts of lysates (500 μg) were incubated with GST-Pak1-PBD agarose beads (Upstate) to pull-down active GTP-bound Rac-1 at 4° C. for 1 h with rotation. The samples were subsequently analyzed for bound Rac-1 by western blot analysis using an anti-Rac-1 antibody (Upstate).

[6] = tested on: human CECs; assay: Proliferation assay (BrdU ELISA); type: cell-based; details: 24 h stimulation; CCL11 10 ng/ml, CCL24 100 ng/ml, CCL26 2 μg/ml; versus BSA
Method: Proliferation assay. Human CECs were synchronized for cell cycle state by first cultivating them in EGM2-MV media (Lonza) supplemented with 10% FBS (Gibco) to achieve complete confluence and then by overnight serum starvation in MCDB131 media (Gibco) with 0.1% FBS. They were passaged to 96-well plates at a density of 5,000 cells per well, followed by stimulation for 24 h with eotaxin-1, 2 or 3 (10 ng, 100 ng and 2 μg per ml, respectively; Peprotech) in MCDB131 media with 0.1% FBS. After 24 h, cell viability was measured with BrdU ELISA (Chemicon) according to manufacturer's instructions.

[7] = tested on: human CECs; assay: F-actin polymerization assay; type: cell-based; details: CCL11 10 ng/ml, CCL24 100 ng/ml, CCL26 2 μg/ml; versus PBS
Method: F-actin Polymerization Assay. Human CECs were seeded in black-walled 96-well plates and grown to 70-80% confluence in fully supplemented EGM-2MV. Cultures were serum starved overnight in basal media and then stimulated with recombinant human eotaxin-1 (10 ng/ml), eotaxin-2 (100 ng/ml), eotaxin-3 (2 μg/ml) (Peprotech), or vehicle control (PBS). At 0, 10, 30, 60, or 120 sec time-points, cells were fixed in 3.7% paraformaldehyde for 10 min, washed, permeabilized in PBS with 0.1% Triton-X, and then stained with rhodamine labelled Phalloidin (1:200, Invitrogen) per manufacturer's recommendations. Plates were analyzed on a fluorescent plate reader (Synergy 4, Biotek) followed by fluorescent microscopy (Nikon E800).

Molecule: O=C([O-])c1ccccc1-c1c2ccc(=O)cc-2oc2cc([O-])ccc12.[Na+].[Na+] [sodium fluorescein]
- hyperfluorescence indicative of CNV on fluorescein angiography [1]: no areas of hyperfluorescence indicative of CNV

Molecule: (S)-Methyl-2-naphthoylamino-3-(4-nitrophenyl)propionate [SB328437]
- CNV in Ccr3−/− mice [2]: 109±16 % of control
- retinal toxicity [3]: neither CCR3 Ab nor CCR3 receptor antagonist induced retinal toxicity
- laser-induced CNV (effect in words) [4]: reduced
- laser-induced CNV (effect in words) ([4]; listed as (S)-Methyl-2-naphthoylamino-3-(4-nitrophenyl)propionate): suppressed laser injury-induced CNV in wild-type mice in a dose-dependent fashion

Molecule: CCL11: CCR3 ligand eotaxin-1, recombinant human (Peprotech)
- active (GTP-bound) Rac-1 GTPase levels [5]: increased levels of activate Rac-1 GTPase
- human CEC proliferation [6]: induced human CEC proliferation
- actin polymerization in human CECs [7]: induced actin polymerization

Molecule: CCL26: CCR3 ligand eotaxin-3, recombinant human (Peprotech)
- active (GTP-bound) Rac-1 GTPase levels [5]: increased levels of activate Rac-1 GTPase
- human CEC proliferation [6]: induced human CEC proliferation
- actin polymerization in human CECs [7]: induced actin polymerization

B1: CCL24: CCR3 ligand eotaxin-2, recombinant human (Peprotech) (protein, UniProt O00175 27-119, looked up)
C-C motif chemokine 24: VVIPSPCCMFFVSKRIPENRVVSYQLSSRSTCLKAGVIFTTKKGQQFCGDPKQEWVQRYMKNLDAKQKKASPRARAVAVKGPVQRYPGNQTTC
- active (GTP-bound) Rac-1 GTPase levels [5]: increased levels of activate Rac-1 GTPase
- human CEC proliferation [6]: induced human CEC proliferation
- actin polymerization in human CECs [7]: induced actin polymerization
